Laboratory results: US20140128599A1, “BENZOXAZOLE KINASE INHIBITORS AND METHODS OF USE” (Intellikine LLC La Jolla, priority 2008, published 2014)

Key:
Assay type in all cases: biochemical
[1] = target: T1, mTOR (Homo sapiens, UniProt P42345); experiment: mTOR kinase inhibition assay
T1 construct: purchased Invitrogen
Protocol: The compounds described herein can be tested against recombinant mTOR (Invitrogen) in an assay containing 50 mM HEPES, pH 7.5, 1 mM EGTA, 10 mM MgCl2, 2.5 mM, 0.01% Tween, 10 μM ATP (2.5 μCi of μ-32P-ATP), and 3 μg/mL BSA. Rat recombinant PHAS-1/4EBP1 (Calbiochem; 2 mg/mL) is used as a substrate. Reactions are terminated by spotting onto nitrocellulose, which is washed with 1M NaCl/1% phosphoric acid (approximately 6 times, 5-10 minutes each). Sheets are dried and the transferred radioactivity quantitated by phosphorimaging.
This assay is a time resolved FRET platform that measures the phosphorylation of GFP labeled 4EBP1 by mTOR kinase. The kinase reaction is performed in a white 384 well microtitre plate. The total reaction volume is 20 ul per well and the reaction buffer composition is 50 mM HEPES pH7.5, 0.01% Polysorbate 20, 1 mM EGTA, 10 mM MnCl2, and 2 mM DTT. In the first step, each well receives 2 ul of test compound in 20% dimethylsulphoxide resulting in a 2% DMSO final concentration. Next, 8 ul of mTOR diluted in reaction buffer is added per well for a 60 ng/ml final concentration. To start the reaction, 10 ul of an ATP/GFP-4EBP1 mixture (diluted in reaction buffer) is added per well for a final concentration of 10 uM ATP and 0.5 uM GFP-4EBP1. The plate is sealed and incubated for 1 hour at room temperature. […] The plate is sealed, incubated for 1 hour at room temperature, and then read on a plate reader set up for LanthaScreen™ TR-FRET. Data is analyzed and IC50s are generated using GraphPad Prism 5.

[2] = target: T2, PI3K α (Homo sapiens, UniProt P42336); experiment: PI3K kinase inhibition assay (p110α/p85α)
T2 construct: purchased Upstate

[3] = target: T3, PI3K β (Homo sapiens, UniProt P42338); experiment: PI3K kinase inhibition assay (p110β/p85α)
T3 construct: purchased Upstate
T3 sequence (P42338 whole entry): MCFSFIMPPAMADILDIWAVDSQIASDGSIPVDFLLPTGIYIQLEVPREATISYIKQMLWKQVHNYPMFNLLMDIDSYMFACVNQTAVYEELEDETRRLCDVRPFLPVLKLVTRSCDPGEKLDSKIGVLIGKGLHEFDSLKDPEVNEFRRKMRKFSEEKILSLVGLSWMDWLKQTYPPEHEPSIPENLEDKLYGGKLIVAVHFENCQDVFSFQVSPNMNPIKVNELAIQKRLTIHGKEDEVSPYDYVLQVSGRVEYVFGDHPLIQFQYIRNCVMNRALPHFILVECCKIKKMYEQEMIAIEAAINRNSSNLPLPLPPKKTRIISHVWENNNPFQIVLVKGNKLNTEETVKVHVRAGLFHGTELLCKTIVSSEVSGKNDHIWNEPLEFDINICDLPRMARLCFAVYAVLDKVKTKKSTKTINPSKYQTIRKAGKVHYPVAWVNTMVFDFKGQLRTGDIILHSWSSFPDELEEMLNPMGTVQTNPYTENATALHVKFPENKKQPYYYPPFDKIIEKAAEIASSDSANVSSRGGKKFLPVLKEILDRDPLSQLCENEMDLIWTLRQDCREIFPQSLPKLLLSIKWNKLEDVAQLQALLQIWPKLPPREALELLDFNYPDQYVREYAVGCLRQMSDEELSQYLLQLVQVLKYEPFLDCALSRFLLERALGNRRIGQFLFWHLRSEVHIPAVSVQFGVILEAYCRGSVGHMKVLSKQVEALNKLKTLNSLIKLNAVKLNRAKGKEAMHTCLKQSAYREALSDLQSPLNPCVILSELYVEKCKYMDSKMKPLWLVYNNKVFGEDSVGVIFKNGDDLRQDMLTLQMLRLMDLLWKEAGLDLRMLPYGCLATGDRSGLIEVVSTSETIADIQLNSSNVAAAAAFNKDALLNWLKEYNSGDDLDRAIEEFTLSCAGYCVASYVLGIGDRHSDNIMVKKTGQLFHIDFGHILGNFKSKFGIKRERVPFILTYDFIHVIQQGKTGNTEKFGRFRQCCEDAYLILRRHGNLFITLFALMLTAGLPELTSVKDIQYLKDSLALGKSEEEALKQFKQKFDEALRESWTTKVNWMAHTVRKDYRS
T3 sequence (P27986 whole entry partner): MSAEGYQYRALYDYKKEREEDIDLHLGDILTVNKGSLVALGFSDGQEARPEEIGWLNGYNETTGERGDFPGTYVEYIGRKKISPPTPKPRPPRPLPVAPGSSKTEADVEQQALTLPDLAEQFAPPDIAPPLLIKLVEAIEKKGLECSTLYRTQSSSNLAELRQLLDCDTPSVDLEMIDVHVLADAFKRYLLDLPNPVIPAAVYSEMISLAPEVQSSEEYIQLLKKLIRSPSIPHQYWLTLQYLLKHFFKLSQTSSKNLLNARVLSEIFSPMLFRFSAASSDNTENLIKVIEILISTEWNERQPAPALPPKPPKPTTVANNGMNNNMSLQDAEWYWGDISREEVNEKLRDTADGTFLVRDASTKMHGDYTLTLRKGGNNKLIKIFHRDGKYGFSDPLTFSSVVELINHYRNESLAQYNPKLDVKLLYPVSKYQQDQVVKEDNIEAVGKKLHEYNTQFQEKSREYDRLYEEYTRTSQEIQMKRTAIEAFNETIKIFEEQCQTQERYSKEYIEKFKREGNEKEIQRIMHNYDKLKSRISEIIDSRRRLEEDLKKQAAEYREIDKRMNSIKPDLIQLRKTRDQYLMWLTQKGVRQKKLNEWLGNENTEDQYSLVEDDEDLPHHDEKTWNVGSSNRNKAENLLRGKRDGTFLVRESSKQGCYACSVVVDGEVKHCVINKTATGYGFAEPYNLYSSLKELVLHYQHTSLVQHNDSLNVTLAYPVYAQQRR

[4] = target: T4, PI3K γ (Homo sapiens, UniProt P48736); experiment: PI3K kinase inhibition assay (p110γ)
T4 construct: purchased Sigma
T4 sequence (P48736 whole entry): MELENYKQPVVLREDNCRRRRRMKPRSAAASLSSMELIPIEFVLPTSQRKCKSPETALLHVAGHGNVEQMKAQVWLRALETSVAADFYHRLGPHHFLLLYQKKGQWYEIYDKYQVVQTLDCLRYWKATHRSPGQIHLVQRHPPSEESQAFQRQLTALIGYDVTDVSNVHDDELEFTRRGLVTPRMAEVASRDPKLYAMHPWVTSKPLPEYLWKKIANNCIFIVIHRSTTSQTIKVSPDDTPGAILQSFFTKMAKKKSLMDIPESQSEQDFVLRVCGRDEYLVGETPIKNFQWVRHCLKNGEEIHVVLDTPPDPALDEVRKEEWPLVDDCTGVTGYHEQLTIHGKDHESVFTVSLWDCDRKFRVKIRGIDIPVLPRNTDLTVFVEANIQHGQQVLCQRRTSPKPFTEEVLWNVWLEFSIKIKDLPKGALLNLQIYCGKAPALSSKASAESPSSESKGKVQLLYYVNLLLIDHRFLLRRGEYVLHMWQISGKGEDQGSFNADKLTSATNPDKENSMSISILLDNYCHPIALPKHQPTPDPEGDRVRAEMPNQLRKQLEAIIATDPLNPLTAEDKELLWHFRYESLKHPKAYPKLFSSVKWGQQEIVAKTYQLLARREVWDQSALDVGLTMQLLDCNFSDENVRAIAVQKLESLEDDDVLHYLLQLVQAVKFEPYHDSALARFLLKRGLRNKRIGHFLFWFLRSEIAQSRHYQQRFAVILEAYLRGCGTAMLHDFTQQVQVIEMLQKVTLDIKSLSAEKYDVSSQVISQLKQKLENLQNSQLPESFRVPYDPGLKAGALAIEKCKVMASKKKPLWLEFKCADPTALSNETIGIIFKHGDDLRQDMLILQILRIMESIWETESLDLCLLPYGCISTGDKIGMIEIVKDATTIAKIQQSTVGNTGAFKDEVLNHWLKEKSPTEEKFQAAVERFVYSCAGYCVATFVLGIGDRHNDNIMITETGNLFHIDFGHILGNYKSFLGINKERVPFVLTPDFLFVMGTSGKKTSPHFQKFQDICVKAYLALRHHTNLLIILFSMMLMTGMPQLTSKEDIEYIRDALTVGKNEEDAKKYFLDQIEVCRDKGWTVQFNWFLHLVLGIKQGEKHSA
Protocol: IC50 values are measured using either a standard TLC assay for lipid kinase activity (described below) or a high-throughput membrane capture assay. Kinase reactions are performed by preparing a reaction mixture containing kinase, inhibitor (2% DMSO final concentration), buffer (25 mM HEPES, pH 7.4, 10 mM MgCl2), and freshly sonicated phosphatidylinositol (100 μg/ml). Reactions are initiated by the addition of ATP containing 10 μCi of γ-32P-ATP to a final concentration 10 or 100 μM and allowed to proceed for 5 minutes at room temperature. For TLC analysis, reactions are then terminated by the addition of 105 μl 1N HCl followed by 160 μl CHCl3:MeOH (1:1). The biphasic mixture is vortexed, briefly centrifuged, and the organic phase is transferred to a new tube using a gel loading pipette tip precoated with CHCl3. […] The TLC plates are then dried, exposed to a phosphorimager screen (Storm, Amersham), and quantitated.
Briefly, the assay is a time resolved FRET assay that indirectly measures PIP3 product formed by the activity of a PI3-K. The kinase reaction is performed in a microtitre plate (e.g., a 384 well microtitre plate). The total reaction volume is approximately 20 ul per well. In the first step, each well receives 2 ul of test compound in 20% dimethylsulphoxide resulting in a 2% DMSO final concentration. Next, approximately 14.5 ul of a kinase/PIP2 mixture (diluted in 1× reaction buffer) is added per well for a final concentration of 0.25-0.3 ug/ml kinase and 10 uM PIP2. The plate is sealed and incubated for 15 minutes at room temperature. To start the reaction, 3.5 ul of ATP (diluted in 1× reaction buffer) is added per well for a final concentration of 10 uM ATP. The plate is sealed and incubated for 1 hour at room temperature. The reaction is stopped by adding 5 ul of Stop Solution per well and then 5 ul of Detection Mix is added per well. The plate is sealed, incubated for 1 hour at room temperature, and then read on an appropriate plate reader. Data is analyzed and IC50s are generated using GraphPad Prism 5.

[5] = target: T5, PI3K δ (Homo sapiens, UniProt O00329); experiment: PI3K kinase inhibition assay (p110δ/p85α)
T5 construct: purchased Upstate
T5 sequence (O00329 whole entry): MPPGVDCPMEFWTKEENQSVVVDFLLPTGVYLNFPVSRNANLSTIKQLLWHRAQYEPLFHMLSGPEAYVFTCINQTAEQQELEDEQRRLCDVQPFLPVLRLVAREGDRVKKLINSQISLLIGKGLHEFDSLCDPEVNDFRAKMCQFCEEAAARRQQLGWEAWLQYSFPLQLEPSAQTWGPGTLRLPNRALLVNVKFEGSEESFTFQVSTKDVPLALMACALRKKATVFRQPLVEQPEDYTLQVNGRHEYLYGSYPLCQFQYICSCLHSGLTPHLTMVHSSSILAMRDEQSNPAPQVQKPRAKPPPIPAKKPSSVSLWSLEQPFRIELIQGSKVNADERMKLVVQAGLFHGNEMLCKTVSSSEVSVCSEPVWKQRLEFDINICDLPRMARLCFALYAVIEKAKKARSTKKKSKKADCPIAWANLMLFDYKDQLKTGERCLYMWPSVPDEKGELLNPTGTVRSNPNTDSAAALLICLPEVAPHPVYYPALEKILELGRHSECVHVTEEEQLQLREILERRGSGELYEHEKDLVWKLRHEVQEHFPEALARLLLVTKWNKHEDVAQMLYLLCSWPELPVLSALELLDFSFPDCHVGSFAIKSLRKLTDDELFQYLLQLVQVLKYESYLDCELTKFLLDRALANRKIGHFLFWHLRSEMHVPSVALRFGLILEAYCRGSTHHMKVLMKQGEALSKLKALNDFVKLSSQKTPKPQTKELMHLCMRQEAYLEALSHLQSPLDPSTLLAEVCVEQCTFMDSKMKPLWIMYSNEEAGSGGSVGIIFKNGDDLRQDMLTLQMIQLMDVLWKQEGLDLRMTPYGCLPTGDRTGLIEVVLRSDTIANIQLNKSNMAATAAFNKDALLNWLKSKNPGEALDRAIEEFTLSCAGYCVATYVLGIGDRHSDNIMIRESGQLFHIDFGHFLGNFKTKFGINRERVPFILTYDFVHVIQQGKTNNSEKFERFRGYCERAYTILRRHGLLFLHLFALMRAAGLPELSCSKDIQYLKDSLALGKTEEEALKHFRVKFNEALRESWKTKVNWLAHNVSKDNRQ
T5 sequence (P27986 whole entry partner): as the sequence (P27986 whole entry partner) above

T2 sequence (P42336 whole entry): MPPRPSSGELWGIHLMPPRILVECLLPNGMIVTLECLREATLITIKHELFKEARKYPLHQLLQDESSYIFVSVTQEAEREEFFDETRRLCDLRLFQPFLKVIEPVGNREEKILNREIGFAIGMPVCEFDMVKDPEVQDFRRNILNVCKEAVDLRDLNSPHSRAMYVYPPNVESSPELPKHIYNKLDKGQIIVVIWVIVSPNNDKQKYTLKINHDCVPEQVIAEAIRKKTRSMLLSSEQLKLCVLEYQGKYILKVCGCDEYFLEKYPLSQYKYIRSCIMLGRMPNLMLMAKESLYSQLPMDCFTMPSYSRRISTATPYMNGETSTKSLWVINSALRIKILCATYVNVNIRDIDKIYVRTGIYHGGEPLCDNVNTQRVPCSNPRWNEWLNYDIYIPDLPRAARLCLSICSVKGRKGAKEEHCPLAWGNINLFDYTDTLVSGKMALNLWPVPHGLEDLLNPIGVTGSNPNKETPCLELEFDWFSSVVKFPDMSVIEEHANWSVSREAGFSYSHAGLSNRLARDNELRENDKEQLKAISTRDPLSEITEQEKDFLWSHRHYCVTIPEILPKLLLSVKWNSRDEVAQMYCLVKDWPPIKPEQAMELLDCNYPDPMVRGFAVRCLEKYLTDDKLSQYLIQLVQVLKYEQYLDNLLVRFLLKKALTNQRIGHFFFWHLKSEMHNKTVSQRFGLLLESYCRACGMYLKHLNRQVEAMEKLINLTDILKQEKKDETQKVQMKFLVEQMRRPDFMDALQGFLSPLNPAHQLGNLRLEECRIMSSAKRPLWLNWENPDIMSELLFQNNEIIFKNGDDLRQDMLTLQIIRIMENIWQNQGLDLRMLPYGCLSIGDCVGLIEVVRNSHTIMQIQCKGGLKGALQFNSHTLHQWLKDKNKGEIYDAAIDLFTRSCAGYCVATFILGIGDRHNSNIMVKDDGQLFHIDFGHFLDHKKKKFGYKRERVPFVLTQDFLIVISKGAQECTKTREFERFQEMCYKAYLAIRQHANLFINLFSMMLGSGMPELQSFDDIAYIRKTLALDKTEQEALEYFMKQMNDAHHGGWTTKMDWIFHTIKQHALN
T2 sequence (P27986 whole entry partner): as the sequence (P27986 whole entry partner) above

Row | Compound | IC50 [1] [µM] | IC50 [2] [µM] | IC50 [3] [µM] | IC50 [4] [µM] | IC50 [5] [µM]
1 | CC(=O)Nc1nc2cc(-c3nn(C(C)C)c4ncnc(N)c34)ccc2o1 [compound 2] | < 0.1 | < 10 | > 10 | < 1 | < 1
2 | CC(=O)Nc1nc2ccc(-c3nn(C(C)C)c4ncnc(N)c34)cc2o1 [compound 3] |  | > 10 |  |  | 
3 | CC(C)n1nc(-c2ccc3nc(N)oc3c2)c2c(N)ncnc21 [compound 4] | < 1 | < 10 | < 10 | < 1 | < 1
4 | Nc1nc2cc(-c3nn(C4CCOCC4)c4ncnc(N)c34)ccc2o1 [compound 5] | < 0.1 | < 1 | < 10 | < 0.1 | < 1
5 | Nc1nc2cc(-c3nn(C4CCC(N5CCOCC5)CC4)c4ncnc(N)c34)ccc2o1 (stereo not drawn) [compound 6] |  |  | > 10 |  | < 1
6 | CC(=O)N1CCC(n2nc(-c3ccc4oc(N)nc4c3)c3c(N)ncnc32)CC1 [compound 7] |  | < 1 | < 10 | < 10 | < 1
7 | CC(C)n1cc(-c2ccc3oc(N)nc3c2)c2c(N)ncnc21 [compound 8] | < 0.1 | < 1 | > 10 | < 1 | < 1
8 | Nc1nc2cc(-c3cn(C4CCOCC4)c4ncnc(N)c34)ccc2o1 [compound 9] |  | < 10 | > 10 |  | 
9 | CC(C)n1nc(-c2ccc3onc(N)c3c2)c2c(N)ncnc21 [compound 10] | < 10 |  |  |  | 
10 | CC(=O)Nc1noc2cc(-c3nn(C(C)C)c4ncnc(N)c34)ccc12 [compound 11] | < 1 |  |  |  | 
11 | CC(C)n1nc(-c2ccc3c(N)noc3c2)c2c(N)ncnc21 [compound 12] | < 1 |  |  |  | 
12 | CNc1noc2cc(-c3nn(C(C)C)c4ncnc(N)c34)ccc12 [compound 13] | < 10 | < 10 |  | < 1 | < 1
13 | CC(C)n1nc(-c2ccc3c(NC4CC4)noc3c2)c2c(N)ncnc21 [compound 14] | < 10 | < 10 |  |  | < 10
14 | CC(C)n1nc(-c2ccc3onc(NC4CC4)c3c2)c2c(N)ncnc21 [compound 16] | > 10 | > 10 |  |  | > 10
15 | Nc1noc2ccc(-c3nn(CC(=O)N4CCOCC4)c4ncnc(N)c34)cc12 [compound 17] | > 10 | > 10 |  | > 10 | > 10
16 | COC(=O)Nc1noc2ccc(-c3nn(C(C)C)c4ncnc(N)c34)cc12 [compound 19] | < 10 |  | > 10 |  | > 10
17 | COC(=O)Nc1noc2cc(-c3nn(C(C)C)c4ncnc(N)c34)ccc12 [compound 20] | < 10 |  | > 10 |  | < 10
18 | Cc1nc(N)c2c(-c3ccc4oc(N)nc4c3)nn(C(C)C)c2n1 [compound 21] | < 1 | > 10 | > 10 | > 10 | > 10
19 | CC(CO)n1nc(-c2ccc3oc(N)nc3c2)c2c(N)ncnc21 (stereo not drawn) [compound 23] | < 0.1 | < 10 | > 10 | < 10 | < 10
20 | Nc1nc2cc(-c3nn(C4CC(=O)C4)c4ncnc(N)c34)ccc2o1 [compound 25] |  | < 1 | < 10 | < 0.1 | < 1
21 | Nc1nc2cc(-c3nn(C4CC(O)C4)c4ncnc(N)c34)ccc2o1 (stereo not drawn) [compound 26] |  | < 0.1 |  | < 0.1 | 
22 | CC(C)(CO)n1nc(-c2ccc3oc(N)nc3c2)c2c(N)ncnc21 [compound 27] |  | < 10 | > 10 | > 10 | < 1
